The source of these data is US20080286216A1, “Surface Active Calcium Phosphates” (priority 2005, published 2008).

Data set [1] concerns people living in fluoridated areas. The note with it: fluoride in drinking water; cited from earlier work.
The subject of data set [2] is human dental plaque microcosm biofilms. As to the kind of experiment: Tooth remineralisation: mineral deposition in dental plaque microcosm biofilms (Wong et al. method). Format: cell-based. The note with it: conclusion of Example 16. On the procedure:
This example investigated the tooth remineralisation properties of a complex according to the invention.
BMM: basal medium mucin models the nutrients present in saliva and was prepared following Wong et al, “Calcium phosphate deposition in human dental plaque microcosm biofilms induced by a ureolytic pH-rise procedure” Archives of Oral Biology 47 (2002) 779-790
The complex according to the invention was tested for its tooth remineralisation properties using the methodology described in Wong et al, “Calcium phosphate deposition in human dental plaque microcosm biofilms induced by a ureolytic pH-rise procedure” Archives of Oral Biology 47 (2002) 779-790.
Ca & P units: mmol/g protein, F units: μmol/g protein
Mineralisation regime: 14 days mineralisation; 3 doses of testing composition and 10% sucrose daily

As to `F` [fluoride], in data set [1], the “aesthetically unacceptable changes to the appearance of teeth” value is reported as “at least 12.5%” and the incidence of fluorosis is recorded as at most 48%. Consider “Stearamidopropyl Dimethylamine Glycerophosphate [Example 14]”, for which the tooth remineralisation properties entry in data set [2] is reported as “has tooth remineralisation properties”.
